Our source for the Ki values is ChEMBL document CHEMBL4732204, “Multitargeting application of proline-derived peptidomimetics addressing cancer-related human matrix metalloproteinase 9 and carbonic anhydrase II” (Eur J Med Chem, 2021).

One may read the Ki as the dissociation constant of the complex between target and ligand, obtained from inhibition or displacement. Lower therefore signals tighter binding.

For experiment [1], the target named is Matrix metalloproteinase-9 (Homo sapiens, UniProt P14780). The experiment is described as follows: Inhibition of MMP9 (unknown origin) using Mca-Lys-Pro-Leu-Gly-Leu-Dpa-Ala-Arg-NH2 as substrate incubated for 5 min followed by substrate addition and measured for 30 mins by fluorescence based assay.
Chain of Matrix metalloproteinase-9 (P14780 whole entry): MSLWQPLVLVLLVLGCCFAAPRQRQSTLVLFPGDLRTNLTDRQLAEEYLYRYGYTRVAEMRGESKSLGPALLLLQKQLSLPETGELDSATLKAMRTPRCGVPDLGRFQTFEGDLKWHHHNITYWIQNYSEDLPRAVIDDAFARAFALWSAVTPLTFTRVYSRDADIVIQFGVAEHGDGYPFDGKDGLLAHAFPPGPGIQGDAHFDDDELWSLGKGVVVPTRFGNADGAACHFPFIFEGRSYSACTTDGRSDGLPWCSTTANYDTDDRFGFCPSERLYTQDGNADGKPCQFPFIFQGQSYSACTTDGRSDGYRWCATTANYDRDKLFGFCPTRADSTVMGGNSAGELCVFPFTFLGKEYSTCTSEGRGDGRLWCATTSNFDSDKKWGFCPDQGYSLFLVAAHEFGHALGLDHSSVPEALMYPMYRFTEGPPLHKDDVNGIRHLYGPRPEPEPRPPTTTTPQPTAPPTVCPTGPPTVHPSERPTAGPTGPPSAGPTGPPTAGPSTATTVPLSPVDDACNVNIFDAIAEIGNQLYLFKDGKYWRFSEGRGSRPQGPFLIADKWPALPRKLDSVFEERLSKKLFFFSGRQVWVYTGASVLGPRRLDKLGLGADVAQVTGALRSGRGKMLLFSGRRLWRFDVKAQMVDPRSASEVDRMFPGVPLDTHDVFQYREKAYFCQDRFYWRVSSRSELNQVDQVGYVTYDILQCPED
The target of experiment [2] is Carbonic anhydrase 2 (Homo sapiens, UniProt P00918). The experiment is described as follows: Inhibition of human CA2 incubated for 15 mins by stopped-flow CO2 hydration kinetic assay based Cheng-Prusoff equation analysis.
For experiment [3], the target named is Carbonic anhydrase 1 (Homo sapiens, UniProt P00915). The experiment is described as follows: Inhibition of human CA1 incubated for 15 mins by stopped-flow CO2 hydration kinetic assay based Cheng-Prusoff equation analysis.
Chain of Carbonic anhydrase 1 (P00915 whole entry): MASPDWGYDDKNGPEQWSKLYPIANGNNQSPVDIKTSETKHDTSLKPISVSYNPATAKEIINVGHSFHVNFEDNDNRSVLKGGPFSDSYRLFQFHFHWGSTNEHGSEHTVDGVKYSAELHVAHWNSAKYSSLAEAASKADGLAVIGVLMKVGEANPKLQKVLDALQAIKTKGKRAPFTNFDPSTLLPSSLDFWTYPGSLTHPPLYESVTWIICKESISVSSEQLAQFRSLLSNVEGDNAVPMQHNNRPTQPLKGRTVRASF
Experiment [4] has as its target Carbonic anhydrase 9 (Homo sapiens, UniProt Q16790). The experiment is described as follows: Inhibition of human CA9 incubated for 15 mins by stopped-flow CO2 hydration kinetic assay based Cheng-Prusoff equation analysis.
The target in experiment [5] is 72 kDa type IV collagenase (Homo sapiens, UniProt P08253).
Chain of 72 kDa type IV collagenase (P08253 whole entry): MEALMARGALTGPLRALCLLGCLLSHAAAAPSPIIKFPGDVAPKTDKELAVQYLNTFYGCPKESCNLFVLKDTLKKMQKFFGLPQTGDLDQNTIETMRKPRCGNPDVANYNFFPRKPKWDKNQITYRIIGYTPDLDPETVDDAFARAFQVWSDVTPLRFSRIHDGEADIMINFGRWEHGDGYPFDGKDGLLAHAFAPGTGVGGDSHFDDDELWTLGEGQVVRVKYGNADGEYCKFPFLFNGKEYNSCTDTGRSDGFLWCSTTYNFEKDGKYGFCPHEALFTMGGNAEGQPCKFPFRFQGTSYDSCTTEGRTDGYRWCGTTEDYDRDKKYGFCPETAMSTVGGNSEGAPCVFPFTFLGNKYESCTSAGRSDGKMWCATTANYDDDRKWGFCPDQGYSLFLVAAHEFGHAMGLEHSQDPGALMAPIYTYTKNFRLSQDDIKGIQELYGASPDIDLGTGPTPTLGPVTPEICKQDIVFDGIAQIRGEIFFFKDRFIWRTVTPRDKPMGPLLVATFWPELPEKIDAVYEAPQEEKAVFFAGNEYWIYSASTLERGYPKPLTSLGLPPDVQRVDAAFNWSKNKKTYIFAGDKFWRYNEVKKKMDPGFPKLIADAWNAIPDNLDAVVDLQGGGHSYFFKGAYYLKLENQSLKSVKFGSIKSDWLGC
Experiment [6] addresses Carbonic anhydrase 12 (Homo sapiens, UniProt O43570). The experiment is described as follows: Inhibition of human CA12 incubated for 15 mins by stopped-flow CO2 hydration kinetic assay based Cheng-Prusoff equation analysis.

Chain of Carbonic anhydrase 12 (O43570 whole entry): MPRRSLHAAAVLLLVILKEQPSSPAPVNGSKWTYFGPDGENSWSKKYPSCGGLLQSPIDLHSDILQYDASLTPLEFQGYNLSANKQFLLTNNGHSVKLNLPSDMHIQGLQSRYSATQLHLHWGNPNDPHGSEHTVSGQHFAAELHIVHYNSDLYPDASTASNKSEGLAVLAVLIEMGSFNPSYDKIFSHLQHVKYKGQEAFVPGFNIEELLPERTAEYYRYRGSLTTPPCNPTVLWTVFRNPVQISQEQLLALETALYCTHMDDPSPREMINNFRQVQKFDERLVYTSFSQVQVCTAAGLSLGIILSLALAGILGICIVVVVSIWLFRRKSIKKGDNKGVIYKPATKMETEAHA

Take `COc1ccc(S(=O)(=O)N2CCC[C@@H]2C(=O)NO)cc1`: the inhibition constant (Ki) in experiment [1] is 0.02 µM; in experiment [2], > 100 µM; in experiment [3] it was > 100 µM.
As for `O=C(NO)[C@H]1C[C@H](NS(=O)(=O)c2ccc(-c3ccccc3)cc2)CN1S(=O)(=O)c1ccc(-c2ccccc2)cc1`, the Ki was 0.294 µM in experiment [1]; 21.4 µM in experiment [4]; 54 nM in experiment [5]; > 100 µM in experiment [2]; > 100 µM in experiment [3]; 8.82 µM in experiment [6].
For the compound `COc1ccc(S(=O)(=O)N2C[C@H](NC(=O)C(C)(C)C)C[C@@H]2C(=O)NO)cc1`, the Ki in experiment [1] is 0.123 µM; in experiment [5], 26 nM; in experiment [2], > 100 µM; in experiment [3], > 100 µM.
For the compound `O=C(NO)[C@H]1[C@@H](OCc2ccccc2)CCN1S(=O)(=O)c1ccc(Cl)c(Cl)c1`, the Ki in experiment [1] was > 10 µM; in experiment [2], > 100 µM; in experiment [3], > 100 µM.
Turning to `O=C(NO)[C@H]1C[C@H](NS(=O)(=O)c2ccc(-c3ccccc3)cc2)CN1S(=O)(=O)c1ccc([N+](=O)[O-])cc1`, the Ki was > 100 µM in experiment [1]; 23.3 µM in experiment [4]; 44.8 µM in experiment [2]; 52.9 µM in experiment [3]; > 100 µM in experiment [6].
Regarding `O=C(N[C@@H]1C[C@H](C(=O)NO)N(S(=O)(=O)c2ccc(Cl)c(Cl)c2)C1)c1cccs1`, the Ki in experiment [1] is 0.091 µM; in experiment [5], 131 nM; in experiment [2] it was > 100 µM; in experiment [3], > 100 µM.
On to `COc1ccc(S(=O)(=O)N2C[C@@H](NS(=O)(=O)c3ccc(-c4ccccc4)cc3)C[C@@H]2C(=O)NO)cc1`, for which the Ki is 0.482 µM in experiment [1]; > 100 µM in experiment [4]; 406 nM in experiment [5]; > 100 µM in experiment [2]; > 100 µM in experiment [3]; > 100 µM in experiment [6].
`O=C(Nc1ccc(S(=O)(=O)N2CCC[C@@H]2C(=O)NO)cc1)OCc1ccccc1`: the Ki was 0.473 µM in experiment [1], 2.16 nM in experiment [5], > 100 µM in experiment [2] and > 100 µM in experiment [3].
In the case of `CCCCCCO[C@H]1CCN(S(=O)(=O)c2ccc(Cl)cc2)[C@H]1C(=O)NO`, the Ki in experiment [1] is > 10 µM; in experiment [5] it was > 10000 nM; in experiment [2] it was > 100 µM; in experiment [3], > 100 µM.
Regarding `COc1ccc(S(=O)(=O)N2C[C@@H](NS(=O)(=O)c3ccc(-c4ccccc4)cc3)C[C@@H]2C(=O)O)cc1`, the Ki is > 100 µM in experiment [1]; 20.7 µM in experiment [4]; > 100000 nM in experiment [5]; 6.13 µM in experiment [2]; 8.4 µM in experiment [3]; 9.19 µM in experiment [6].
For the compound `O=C(/C=C/c1ccco1)N[C@H]1C[C@H](C(=O)NO)N(S(=O)(=O)c2ccc(Cl)c(Cl)c2)C1`, the results for the Ki in experiment [1], in experiment [2] and in experiment [3] were 0.324 µM, > 100 µM and > 100 µM, respectively.
On to `O=C(NO)[C@H]1C[C@H](n2cc(-c3ccccc3)nn2)CN1S(=O)(=O)c1ccc(Cl)c(Cl)c1`, for which the Ki in experiment [1] is 1.55 µM; in experiment [2], > 100 µM; in experiment [3], > 100 µM.
As to `O=C(NO)[C@H]1C[C@@H](NS(=O)(=O)c2ccc(-c3ccccc3)cc2)CN1S(=O)(=O)c1ccc(Cl)c(Cl)c1`, the Ki in experiment [1] is 0.541 µM; in experiment [4], > 100 µM; in experiment [5], > 10000 nM; in experiment [2], 24.8 µM; in experiment [3] it was > 100 µM; in experiment [6], 67.2 µM.
`O=C(N[C@H]1C[C@H](C(=O)NO)N(S(=O)(=O)c2ccc(Cl)c(Cl)c2)C1)c1cccs1`: the Ki in experiment [1] was > 10 µM; in experiment [5], > 10000 nM; in experiment [2], > 100 µM; in experiment [3] it was > 100 µM.
As for `O=C(Nc1ccc(S(=O)(=O)N2CCC[C@@H]2C(=O)NO)cc1)c1ccc([N+](=O)[O-])cc1`, the Ki in experiment [1] is 0.00011 µM; in experiment [5], 0.087 nM; in experiment [2], > 100 µM; in experiment [3] it was > 100 µM.
For `O=C(NO)[C@H]1CCCN1S(=O)(=O)c1ccc(C#Cc2ccccc2)cc1`, the Ki was 0.00083 µM in experiment [1], 0.25 nM in experiment [5], > 100 µM in experiment [2] and > 100 µM in experiment [3].
Turning to `O=C(NO)[C@H]1C[C@H](NS(=O)(=O)c2ccc(-c3ccccc3)cc2)CN1S(=O)(=O)c1ccc(OC(F)(F)F)cc1`, the Ki in experiment [1] was > 100 µM; in experiment [4], > 100 µM; in experiment [5] it was > 100000 nM; in experiment [2], > 100 µM; in experiment [3], > 100 µM; in experiment [6] it was > 100 µM.
For `O=C(NO)[C@H]1C[C@@H](n2cc(-c3ccccc3)nn2)CN1S(=O)(=O)c1ccc(Cl)c(Cl)c1`, the results for the Ki in experiment [1], in experiment [2] and in experiment [3] were > 10 µM, > 100 µM and > 100 µM, respectively.
For `CS(=O)(=O)N1C[C@@H](NS(=O)(=O)c2ccc(-c3ccccc3)cc2)C[C@@H]1C(=O)NO`, the Ki was 3.88 µM in experiment [1]; > 100 µM in experiment [4]; 2260 nM in experiment [5]; > 100 µM in experiment [2]; > 100 µM in experiment [3]; 47 µM in experiment [6].
Consider `O=C(Nc1ccc(C(=O)Nc2ccc(S(=O)(=O)N3CCC[C@@H]3C(=O)NO)cc2)cc1)OCc1ccccc1`, for which the Ki in experiment [1] was 0.032 µM; in experiment [5], 0.044 nM; in experiment [2], > 100 µM; in experiment [3], > 100 µM.
Consider `O=C(NO)[C@H]1C[C@H](NS(=O)(=O)c2ccc(-c3ccccc3)cc2)CN1S(=O)(=O)c1ccc(Cl)c(Cl)c1`, for which the Ki in experiment [1] was 0.057 µM; in experiment [4], > 100 µM; in experiment [5], 328 nM; in experiment [2] it was 6.68 µM; in experiment [3] it was > 100 µM; in experiment [6], 98.5 µM.
